Laboratory results from patent US20260272908A1 (VANDERBILT UNIVERSITY, priority 2023, published 2026).

Experiments:
phospho-STAT3 (p-STAT3) = assay: Western blot for phospho-STAT3 in Meta3 and Meta4 organoids; type: cell-based, mouse; conditions: Meta4; 3 days
Protocol: (§1) FIG. 3C-3D show the Western blot analysis for p-STAT3 and p-ERK in Meta3 and Meta4 organoids (FIG. 3C) and ratios of p-STAT3/total STAT3 and p-ERK/total ERK (FIG. 3D). […] FIG. 3F-3G show phase-contrast images of Meta4 organoids treated with DMSO, Pyr (100 nM), STAT3-IN-1 (1 μM), Stattic (2 μM), and Cryptotanshinone (CPT) (5 μM) for 3 days (FIG. 3F), and quantitation of organoid diameters before and after treatment (FIG. 3G). FIG. 3H-3I show phase-contrast images of Meta4 organoids treated with DMSO, trametinib (Tra), STAT3-IN-1, combination of Tra and STAT3-IN-1, and Pyr, for 3 days (FIG. 3H), and quantitation of organoid diameters before and after treatment (FIG. 3I). FIG. 3J-3K show western blot for p-STAT3 and p-ERK after treatment of Tra, Pyr, and SSTC3 (FIG. 3J) and ratios of p-STAT3/t-STAT3 and p-ERK/t-ERK (FIG. 3K). […] Relative quantification of each gene expression level was normalized to GAPDH gene expression. Shading scale represents the mRNA expression values. FIG. 3M show representative mRNA of Pim-1 and Cyclin-B1 after treatment. Mean±standard deviation. […] Scale bar=500 μM.
(§2) Total proteins were extracted from organoids using radioimmunoprecipitation assay buffer (10 mmol/L Tris-HC, pH 7.2, 150 mmol/L NaCl, 5 mmol/L EDTA, 0.1% sodium dodecyl sulfate, 1.0% Triton X-100, 1% deoxycholate) with protease inhibitors. The protein concentration was measured The Bio-Rad Protein Assay (Bio-Rad Laboratories, Hercules, CA). 5 to 10 μg of total protein was loaded onto 12.5% or 10% sodium dodecyl sulfate/polyacrylamide gel electrophoresis (PAGE) and transferred onto polyvinylidene difluoride membranes (Millipore, Billerica, MA). […] After washes with TBS-T, chemiluminescence was detected with an Amersham Imager 680 instrument (GE Healthcare) after 1 mL of the SuperSignal West Femto Maximum Sensitivity Substrate (ThermoFisher) was applied to the membranes.

phospho-ERK (p-ERK) = assay: Western blot for phospho-ERK in Meta3 and Meta4 organoids; type: cell-based, mouse; conditions: Meta4; 3 days
Protocol: as §1, §2

Meta4 organoids = assay: Meta4 dysplastic organoid growth and cell death (organoid diameter, phase-contrast, H&E, live/dead staining); type: cell-based, mouse; conditions: pyrvinium 100 nM, SSTC3 0.2-1 μM, STAT3-IN-1 1 μM, Sttatic 2 μM, 3 days; for cell death: trametinib 1 μM
Protocol: (§3) All experiments were repeated at least three times.
(§4) All experiments were performed at least in triplicate.

Meta3 organoids = assay: Meta3 metaplastic organoid growth and survival (organoid diameter, phase-contrast); type: cell-based, mouse; conditions: STAT3-IN-1 1 μM, Sttatic 2 μM, CPT 5 μM, 3 days
Protocol: as §3, §4

[1] = tested on: human pre-cancerous organoid (hPCO) lines; assay: Human precancerous organoid (hPCO) growth and organoid death; conditions: STAT3 inhibitors; for response (growth and survival): pyrvinium-resistant hPCO-31
Protocol: To establish human pre-cancer organoids (hPCO), fresh tissues were obtained from the gastric cancer patients who underwent curative gastrectomy at SNUH (IRB No. H-1806-166-954).
Meta3, Meta4, and hPCO organoids were cultured in Matrigel (ECM, Sigma) with Mouse or Human IntestiCult medium (StemCell Technology) supplemented with 1% of penicillin/streptomycin (Gibco) in 48-well plates and medium was replaced every 3 days. The organoids were split every 5-7 days before they formed budding structures.
Mouse or human organoids were split and cultured in the Mouse or Human IntestiCult media for 1-2 days until they formed three-dimensional (3D) spherical structures, then the media was switched to media containing either DMSO vehicle or a certain concentration of each drug and cultured for 3 days. The EVOS M7000 inverted microscope were used to obtain phase contrast images of organoids. All experiments were repeated at least three times.
The number and diameters of mouse and human organoids treated with drugs were manually counted and measured at day 0 and 3 or 6 after treatment from four entire well images of each condition at 4× magnification. For counting live or dead cells, organoids were stained with Calcein AM for live cells and EthD-1 for dead cells 3 days after treatment and the number of EthD-1 positive organoids were manually counted from images taken from three wells of each condition at 4× magnification. All experiments were performed at least in triplicate. The mean values from each condition were compared by Student's paired or unpaired t-test using Graphpad Prism. *P<0.05, **P<0.01, ***P<0.001, ****P<0.0001.

[2] = pyrvinium-sensitive hPCO-2 line

| Structure (SMILES) | phosphorylation of STAT3^Y705 (phospho-STAT3 (p-STAT3)) | p-ERK levels (phospho-ERK (p-ERK)) | organoid size / growth (Meta4 organoids) | cell death (Meta4 organoids) | survival and growth of organoids (Meta3 organoids) | response (growth and survival) [1] | organoid survival [1, 2] | organoid growth ([1]; pyrvinium-sensitive hPCO-2 line, 6 days) |
| --- | --- | --- | --- | --- | --- | --- | --- | --- |
| CN(c1ccc(C(F)(F)F)cc1)S(=O)(=O)c1ccc(C(=O)Nc2nc(-c3ccccn3)cs2)cc1 [SSTC3] | did not reduce | did not reduce | did not cause any growth suppression or cell death | did not cause any growth suppression or cell death | – | – | – | – |
| O=[N+]([O-])c1ccc2c(c1)S(=O)(=O)C=C2 [Sttatic] | – | – | induced growth arrest | did not lead to cell death | no influence on the survival and growth | did not respond | survived until 6 days after the treatment | arrested organoid growth |
| COc1cc(/C=C/c2ccc(NC(=O)/C=C/c3cc(OC)c(OC)c(OC)c3)cc2)cc(OC)c1 [STAT3-IN-1] | – | – | induced growth arrest | did not lead to cell death | no influence on the survival and growth | did not respond | survived until 6 days after the treatment | – |
